Results reported in PMC7997032, “Organic synthesis and anti-influenza A virus activity of cyclobakuchiols A, B, C, and D” (PLoS ONE, 2021).
Several values for one entry are separate records, joined by “and”; a condition that tells them apart may be missing. Equal entries are not always repeated.

Test system: MDCK cells
Experiment: MTT assay (cytotoxicity against MDCK cells)
Type: cell-based, canine
Settings: MDCK cells; for MTT, DMSO as 100 (DMSOを 100として), ave / MTT 72h AVE (DMSO = 100): 72h; for MTT, DMSO as 100 (DMSOを 100として), ave: mean of 5 wells (200409 #1 and #3); for MTT 72h AVE (DMSO = 100): summary AVE; for MTT 24h, AVE (DMSO as 100): 0.78 uM, relative to DMSO = 100; for MTT 24h, AVE (DMSO as 100) / MTT 24h, 570-650nm, DMSO as 100, ave: mean of 5 wells from 3 experiments; for MTT 24h, 570-650nm, DMSO as 100, single replicate: individual wells (200331; 200403 #2 1,2; 200403 #3 1,2); for 570-650nm (MTT absorbance, single wells) / 570-650nm ave (mean MTT absorbance of 5 wells) / MTT absorbance with DMSO as 100 (DMSOを 100として), single wells: MTT 72h; for 570-650nm (MTT absorbance, single wells): experiments #1-#3, duplicate wells; for MTT absorbance with DMSO as 100 (DMSOを 100として), single wells: relative to mean of DMSO
Description: 1–5 (0.8–100 μM) were prepared in DMSO (100 μM, 1%; 50 μM, 0.5%; 25 μM, 0.25%; 12.5 μM, 0.125%; 6.3 μM, 0.063%; 3.1 μM, 0.031%; 1.6 μM, 0.016%; 0.8 μM, 0.008%) and mixed with infection medium (DMEM supplemented with 1% bovine serum albumin (BSA; Wako), P/S and 4 mM L-glutamine). The resulting mixture was added to the cells and incubated for 24 or 72 h at 37°C in the presence of 5% CO2. After incubation, cell viability was determined using an MTT cell count kit (Nacalai Tesque) according to the manufacturer’s instructions, as previously described.

[1] = 3.13uM (3.125uM in summary block)

Structure (SMILES) | MTT, DMSO as 100 (DMSOを 100として), ave (0.78uM) | MTT, DMSO as 100 (DMSOを 100として), ave (1.56uM) | MTT 72h AVE (DMSO = 100) (6.25 (uM)) | MTT 72h AVE (DMSO = 100) (12.5 (uM)) | MTT 72h AVE (DMSO = 100) (25 (uM)) | MTT 72h AVE (DMSO = 100) (50 (uM)) | MTT 72h AVE (DMSO = 100) (100 (uM)) | MTT 24h, AVE (DMSO as 100) | MTT 24h, 570-650nm, DMSO as 100, single replicate (1.56uM) | MTT 24h, 570-650nm, DMSO as 100, ave (1.56uM) | MTT 24h, 570-650nm, DMSO as 100, single replicate (3.125uM) | MTT 24h, 570-650nm, DMSO as 100, ave (3.125uM) | MTT 24h, 570-650nm, DMSO as 100, single replicate (6.25uM) | MTT 24h, 570-650nm, DMSO as 100, ave (6.25uM) | MTT 24h, 570-650nm, DMSO as 100, single replicate (12.5uM) | MTT 24h, 570-650nm, DMSO as 100, ave (12.5uM) | MTT 24h, 570-650nm, DMSO as 100, single replicate (25uM) | MTT 24h, 570-650nm, DMSO as 100, ave (25uM) | MTT 24h, 570-650nm, DMSO as 100, single replicate (50uM) | MTT 24h, 570-650nm, DMSO as 100, ave (50uM) | other results
C=C[C@@](C)(/C=C/c1ccc(O)cc1)CCC=C(C)C [(+)-(S)-baku.] | 101.639 | 110.926 | 135.974 | 116.119 | 164.273 | 107.359 | 28.7987 | 106.986 | 103.696 and 92.7462 and 106.461 and 104.983 and 94.4526 | 100.468 | 107.294 and 97.5488 and 102.772 and 101.94 and 95.2685 | 100.964 | 108.582 and 98.5976 and 113.546 and 113.49 and 101.426 | 107.128 | 102.57 and 93.2171 and 103.913 and 112.439 and 104.302 | 103.288 | 108.875 and 109.835 and 96.176 and 115.944 and 106.769 | 107.52 | 119.708 and 122.77 and 91.784 and 117.912 and 113.767 | 113.188 | MTT 72h AVE (DMSO = 100) (3.13 (uM)): 132.176; MTT 24h, 570-650nm, DMSO as 100, single replicate (100uM): 79.067 and 84.0157 and 140.292 and 89.6781 and 39.1391; MTT 24h, 570-650nm, DMSO as 100, ave (100uM): 86.4384; 570-650nm (MTT absorbance, single wells) (0.78uM): 0.9216 and 1.0625 and 0.5565 and 0.8595 and 0.8044 and 0.7519; 570-650nm (MTT absorbance, single wells) (1.56uM): 0.9826 and 0.8065 and 0.7089 and 0.7456 and 0.6067 and 0.9846; 570-650nm ave (mean MTT absorbance of 5 wells) (3.125uM): 0.8903; MTT absorbance with DMSO as 100 (DMSOを 100として), single wells (3.125uM): 116.345 and 146.749 and 122.432 and 152.375 and 122.981; 570-650nm (MTT absorbance, single wells) [1]: 0.8284 and 0.7837 and 0.9885 and 0.8247 and 1.0264 and 0.8069; 570-650nm ave (mean MTT absorbance of 5 wells) (6.25uM): 0.9301; 570-650nm (MTT absorbance, single wells) (6.25uM): 0.9089 and 0.9123 and 0.7679 and 0.9049 and 1.1563 and 0.9272; MTT absorbance with DMSO as 100 (DMSOを 100として), single wells (6.25uM): 133.377 and 112.266 and 132.295 and 169.05 and 132.88; 570-650nm ave (mean MTT absorbance of 5 wells) (12.5uM): 0.9243; 570-650nm ave (mean MTT absorbance of 5 wells) (25uM): 1.2355; 570-650nm (MTT absorbance, single wells) (25uM): 1.2252 and 1.1953 and 1.2444 and 1.2282 and 1.1748 and 1.3049; MTT absorbance with DMSO as 100 (DMSOを 100として), single wells (25uM): 165.457 and 163.303 and 156.203 and 173.501 and 162.904; 570-650nm ave (mean MTT absorbance of 5 wells) (50uM): 0.9798; 570-650nm ave (mean MTT absorbance of 5 wells) (100uM): 0.2711; 570-650nm (MTT absorbance, single wells) (100uM): 0.1982 and 0.2036 and 0.3213 and 0.2978 and 0.3355 and 0.2029; MTT absorbance with DMSO as 100 (DMSOを 100として), single wells (100uM): 34.1264 and 31.6304 and 35.6346 and 21.5507 and 21.0515
C=C[C@]1(C)CC[C@H](C(=C)C)[C@@H](c2ccc(O)cc2)C1 [Cyclo. A] | 105.716 | 110.791 | 127.594 | 109.498 | 139.303 | 115.79 | 76.9772 | 98.7342 | 96.4276 and 83.3373 and 92.051 and 113.855 and 70.8632 | 91.3068 | 90.7466 and 86.7485 and 103.011 and 110.013 and 65.2713 | 91.158 | 105.57 and 88.5259 and 94.0239 and 117.378 and 78.8606 | 96.8717 | 102.53 and 101.147 and 92.3748 and 125.129 and 78.3815 | 99.9126 | 98.9543 and 93.1175 and 86.0556 and 130.26 and 81.3877 | 97.9551 | 112.693 and 118.709 and 75.6574 and 146.7 and 98.6391 | 110.48 | MTT, DMSO as 100 (DMSOを 100として), ave (3.125uM): 135.974; MTT 24h, 570-650nm, DMSO as 100, single replicate (100uM): 18.7526 and 22.4148 and 109.83 and 20.6307 and 19.4099; MTT 24h, 570-650nm, DMSO as 100, ave (100uM): 38.2076; 570-650nm (MTT absorbance, single wells) (0.78uM): 0.7522 and 1.0518 and 0.8482 and 0.7789 and 0.8023 and 0.8685; 570-650nm (MTT absorbance, single wells) [1]: 0.6647 and 0.8265 and 0.8832 and 1.0096 and 1.017 and 1.0051; 570-650nm ave (mean MTT absorbance of 5 wells) (6.25uM): 0.8727; 570-650nm (MTT absorbance, single wells) (6.25uM): 0.8664 and 0.8077 and 0.726 and 1.0037 and 0.9599 and 0.9185; MTT absorbance with DMSO as 100 (DMSOを 100として), single wells (6.25uM): 118.085 and 106.14 and 146.74 and 140.336 and 126.667; 570-650nm ave (mean MTT absorbance of 5 wells) (12.5uM): 0.8716; 570-650nm (MTT absorbance, single wells) (12.5uM): 0.7966 and 0.8514 and 0.5539 and 1.0521 and 0.9774 and 0.9778; MTT absorbance with DMSO as 100 (DMSOを 100として), single wells (12.5uM): 69.5889 and 132.18 and 122.795 and 122.845 and 100.08; 570-650nm ave (mean MTT absorbance of 5 wells) (25uM): 1.0477; 570-650nm (MTT absorbance, single wells) (25uM): 0.9324 and 1.0073 and 0.9924 and 1.0024 and 1.1748 and 1.1365; MTT absorbance with DMSO as 100 (DMSOを 100として), single wells (25uM): 131.951 and 133.28 and 156.203 and 151.11 and 123.973; 570-650nm ave (mean MTT absorbance of 5 wells) (50uM): 1.057; 570-650nm (MTT absorbance, single wells) (50uM): 1.0423 and 1.105 and 0.762 and 0.9117 and 1.3276 and 1.24; MTT absorbance with DMSO as 100 (DMSOを 100として), single wells (50uM): 83.4959 and 99.8992 and 145.471 and 135.873 and 114.21; 570-650nm ave (mean MTT absorbance of 5 wells) (100uM): 0.7247
